According to ChEMBL document CHEMBL1125643, “N-(5-fluorobenzothiazol-2-yl)-2-guanidinothiazole-4-carboxamide. A novel, systemically active antitumor agent effective against 3LL Lewis lung carcinoma” (J Med Chem, 1991):

What was measured:
Mus sp. [1] = assay: Drug related lethality is percent animals in treated groups dying prior to first tumor related death in untreated groups measured in BDF1 mice after ip administration at 10 mg/kg dose 3 days after tumor challenge; type: toxicity, organism-based; set-up: dose 10 mg/kg, route intraperitoneal; settings: in vivo, 72 h
Mus sp. [2] = assay: Drug related lethality is percent animals in treated groups dying prior to first tumor related death in untreated groups measured in BDF1 mice after ip administration at 5 mg/kg dose 3 days after tumor challenge; type: toxicity, organism-based; set-up: dose 5 mg/kg, route intraperitoneal; settings: in vivo, 72 h
Mus sp. [3] = assay: In vivo activity measured against 3LL metastasis in BDF1 mice after ip administration at 16 mg/kg dose, dosing on days 3,7,11 after tumor challenge; type: functional; settings: route intraperitoneal
[4] = Drug related lethality is percent animals in treated groups dying prior to first tumor related death in untreated groups measured in BDF1 mice after ip administration at 32 mg/kg dose days 3,7,11 after tumor challenge; type: toxicity, organism-based; set-up: dose 32 mg/kg, route intraperitoneal; settings: BDF1, mus sp., in vivo, read-out: Lethality
Mus sp. [5] = assay: In vivo activity measured against 3LL metastasis in BDF1 mice after ip administration at 32 mg/kg dose, dosing on days 3,7,11 after tumor challenge; type: functional; settings: route intraperitoneal
Mus sp. [6] = assay: In vivo activity measured against 3LL metastasis in BDF1 mice after ip administration at 8 mg/kg dose, dosing on days 3,7,11 after tumor challenge; type: functional; settings: route intraperitoneal
[7] = Drug related lethality is percent animals in treated groups dying prior to first tumor related death in untreated groups measured in BDF1 mice after ip administration at 8 mg/kg dose days 3,7,11 after tumor challenge; type: toxicity, organism-based; set-up: dose 8 mg/kg, route intraperitoneal; settings: BDF1, mus sp., in vivo, read-out: Lethality
[8] = Drug related lethality is percent animals in treated groups dying prior to first tumor related death in untreated groups measured in BDF1 mice after ip administration at 16 mg/kg dose days 3,7,11 after tumor challenge; type: toxicity, organism-based; set-up: dose 16 mg/kg, route intraperitoneal; settings: BDF1, mus sp., in vivo, read-out: Lethality
[9] = Drug related lethality is percent animals in treated groups dying prior to first tumor related death in untreated groups measured in BDF1 mice after iv administration at 2.5 mg/kg dose 3 days after tumor challenge; type: toxicity, organism-based; set-up: dose 2.5 mg/kg, route intravenous; settings: BDF1, mus sp., in vivo, read-out: Lethality
Mus sp. [10] = assay: In vivo activity against 3LL metastasis in BDF1 mice after iv administration at 18 mg/kg dose, dosing on days 3 after tumor challenge; type: functional
Mus sp. [11] = assay: In vivo activity measured against 3LL metastasis in BDF1 mice after iv administration at 20 mg/kg dose, dosing on days 3 after tumor challenge; type: functional
[12] = Drug related lethality is percent animals in treated groups dying prior to first tumor related death in untreated groups measured in BDF1 mice after iv administration at 30 mg/kg dose 3 days after tumor challenge; type: toxicity, organism-based; set-up: dose 30 mg/kg, route intravenous; settings: BDF1, mus sp., in vivo, read-out: Lethality
[13] = Drug related lethality is percent animals in treated groups dying prior to first tumor related death in untreated groups measured in BDF1 mice after iv administration at 18 mg/kg dose 3 days after tumor challenge; type: toxicity, organism-based; set-up: dose 18 mg/kg, route intravenous; settings: BDF1, mus sp., in vivo, read-out: Lethality
Mus sp. [14] = assay: In vivo activity measured against 3LL metastasis in BDF1 mice after iv administration at 25 mg/kg dose, dosing on days 3 after tumor challenge; type: functional
Mus sp. [15] = assay: In vivo activity measured against 3LL metastasis in BDF1 mice after iv administration at 5 mg/kg dose, dosing on days 3 after tumor challenge; type: functional
Mus sp. [16] = assay: In vivo activity measured against 3LL metastasis in BDF1 mice after iv administration at 2.5 mg/kg dose, dosing on days 3 after tumor challenge; type: functional
[17] = Drug related lethality is percent animals in treated groups dying prior to first tumor related death in untreated groups measured in BDF1 mice after iv administration at 5 mg/kg dose 3 days after tumor challenge; type: toxicity, organism-based; set-up: dose 5 mg/kg, route intravenous; settings: BDF1, mus sp., in vivo, read-out: Lethality
[18] = Drug related lethality is percent animals in treated groups dying prior to first tumor related death in untreated groups measured in BDF1 mice after iv administration at 10 mg/kg dose 3 days after tumor challenge; type: toxicity, organism-based; set-up: dose 10 mg/kg, route intravenous; settings: BDF1, mus sp., in vivo, read-out: Lethality
[19] = Drug related lethality is percent animals in treated groups dying prior to first tumor related death in untreated groups measured in BDF1 mice after iv administration at 25 mg/kg dose 3 days after tumor challenge; type: toxicity, organism-based; set-up: dose 25 mg/kg, route intravenous; settings: BDF1, mus sp., in vivo, read-out: Lethality
[20] = Drug related lethality is percent animals in treated groups dying prior to first tumor related death in untreated groups measured in BDF1 mice after iv administration at 15 mg/kg dose 3 days after tumor challenge; type: toxicity, organism-based; set-up: dose 15 mg/kg, route intravenous; settings: BDF1, mus sp., in vivo, read-out: Lethality
[21] = Drug related lethality is percent animals in treated groups dying prior to first tumor related death in untreated groups measured in BDF1 mice after iv administration at 20 mg/kg dose 3 days after tumor challenge; type: toxicity, organism-based; set-up: dose 20 mg/kg, route intravenous; settings: BDF1, mus sp., in vivo, read-out: Lethality
Mus sp. [22] = assay: In vivo activity measured against 3LL metastasis in BDF1 mice after iv administration at 15 mg/kg dose, dosing on days 3 after tumor challenge; type: functional
Mus sp. [23] = assay: In vivo activity against 3LL metastasis in BDF1 mice after iv administration at 10 mg/kg dose, dosing on days 3 after tumor challenge; type: functional

With CISPLATIN the Lethality (Mus sp. [1]) was 0% and the Lethality (Mus sp. [2]) was 0%.
With `COc1cc([C@@H]2c3cc4c(cc3[C@@H](O[C@@H]3O[C@@H]5CO[C@@H](C)O[C@H]5[C@H](O)[C@H]3O)[C@H]3COC(=O)[C@H]23)OCO4)cc(OC)c1O` [ETOPOSIDE] the T/C (Mus sp. [3]) was 128%, the mortality [4] was 7% and the T/C (Mus sp. [5]) was 130%. It also gave a T/C (Mus sp. [6]) of 118%, a mortality [7] of 0% and a mortality [8] of 0%.
Work on `COc1cccc2c1C(=O)c1c(O)c3c(c(O)c1C2=O)C[C@@](O)(C(=O)CO)C[C@@H]3O[C@H]1C[C@H](N)[C@H](O)[C@H](C)O1` [DOXORUBICIN] yielded a mortality at 72 h [9] of 0%, a T/C (Mus sp. [10]) of 191% and a T/C (Mus sp. [11]) of 189%. For the same compound, the mortality at 72 h [12] was 100%, the mortality at 72 h [13] was 0% and the T/C (Mus sp. [14]) was 197%. The T/C (Mus sp. [15]) was 115%, the T/C (Mus sp. [16]) was 120% and the mortality at 72 h [17] was 0%. It also gave a mortality at 72 h [18] of 0%, a mortality at 72 h [19] of 72% and a mortality at 72 h [20] of 21%. The mortality at 72 h [21] was 15%, the T/C (Mus sp. [22]) was 215% and the T/C (Mus sp. [23]) was 137%.
